Measurements reported in publication PMC7926936, “YM155 Inhibits NleB and SseK Arginine Glycosyltransferase Activity” (Pathogens, 2021).

Columns and labels:
SseK1 = SseK1 (Salmonella enterica, UniProt A0A0H3NK84); assay: biochemical
NleB = NleB (Citrobacter rodentium, UniProt A0A482PDI9); assay: biochemical
Sequence of NleB (A0A482PDI9 whole entry, looked up): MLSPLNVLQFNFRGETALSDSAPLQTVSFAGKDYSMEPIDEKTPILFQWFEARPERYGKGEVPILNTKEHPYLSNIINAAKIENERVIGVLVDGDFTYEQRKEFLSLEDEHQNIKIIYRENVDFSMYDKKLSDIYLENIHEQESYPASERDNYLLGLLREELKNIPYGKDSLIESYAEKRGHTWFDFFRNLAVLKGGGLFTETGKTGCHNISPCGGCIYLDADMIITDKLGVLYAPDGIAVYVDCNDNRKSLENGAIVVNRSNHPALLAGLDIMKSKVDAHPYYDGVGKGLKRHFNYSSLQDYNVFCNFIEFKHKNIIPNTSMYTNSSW

Sequence of SseK1 (A0A0H3NK84 whole entry, looked up): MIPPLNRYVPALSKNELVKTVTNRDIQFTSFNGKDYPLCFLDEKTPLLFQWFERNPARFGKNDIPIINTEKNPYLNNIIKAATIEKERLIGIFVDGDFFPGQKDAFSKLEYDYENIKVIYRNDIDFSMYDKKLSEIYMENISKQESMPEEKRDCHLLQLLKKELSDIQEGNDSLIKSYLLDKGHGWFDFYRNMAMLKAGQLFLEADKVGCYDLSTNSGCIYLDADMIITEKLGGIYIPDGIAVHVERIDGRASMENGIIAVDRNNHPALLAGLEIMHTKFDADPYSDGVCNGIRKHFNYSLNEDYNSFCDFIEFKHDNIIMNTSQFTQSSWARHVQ

Compound: COCCn1c2c([n+](Cc3cnccn3)c1C)C(=O)c1ccccc1C2=O [YM155]
- IC50 (SseK1): ~2 µM
- IC50 (NleB): ~2 µM
